In PubChem BioAssay AID437 (SGCStoCompounds, 2006):

Molecular target: Inositol-trisphosphate 3-kinase C (Homo sapiens) (UniProt Q96DU7)
Test: ITPKC binders by thermal stabilisation, biophysical, DSF, SYPRO orange, purified human protein (AID 437)
Settings: at 20 µM, protein 5.9 µM, buffer 300 mM NaCl, 50 mM Hepes, 10% glycerol, 2 mM TCEP pH 7.5, stronger effect = higher value

Chain of Inositol-trisphosphate 3-kinase C (Homo sapiens) (Q96DU7 whole entry, looked up): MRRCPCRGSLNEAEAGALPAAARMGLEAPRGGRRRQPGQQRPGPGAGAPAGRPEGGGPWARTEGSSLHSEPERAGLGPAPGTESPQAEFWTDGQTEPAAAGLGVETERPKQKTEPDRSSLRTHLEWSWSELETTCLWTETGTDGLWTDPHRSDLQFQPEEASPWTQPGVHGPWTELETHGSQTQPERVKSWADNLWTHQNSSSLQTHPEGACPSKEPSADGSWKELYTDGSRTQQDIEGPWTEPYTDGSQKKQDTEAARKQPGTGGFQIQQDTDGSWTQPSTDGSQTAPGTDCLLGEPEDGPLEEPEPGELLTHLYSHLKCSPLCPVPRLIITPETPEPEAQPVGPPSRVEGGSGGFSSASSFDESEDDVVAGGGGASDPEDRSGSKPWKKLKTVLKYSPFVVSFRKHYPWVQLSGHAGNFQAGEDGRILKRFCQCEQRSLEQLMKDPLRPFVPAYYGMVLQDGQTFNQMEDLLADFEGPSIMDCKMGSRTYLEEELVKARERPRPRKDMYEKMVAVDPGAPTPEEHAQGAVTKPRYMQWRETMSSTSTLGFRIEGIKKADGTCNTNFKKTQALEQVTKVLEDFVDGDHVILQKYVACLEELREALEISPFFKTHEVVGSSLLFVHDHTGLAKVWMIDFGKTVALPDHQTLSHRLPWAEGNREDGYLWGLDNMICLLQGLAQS

Structure (SMILES)	Tm shift [Celsius]
NC(O)(O)c1ccc(N=Nc2c(O)[nH]c3ccc(Cl)cc23)cc1	3.7
NC1=N/C(=C2/CCNC(=O)c3[nH]c(Br)cc32)C(=O)N1	3
C=S(C)c1ccc(CSc2nc(-c3ccc(F)cc3)c(-c3ccncc3)[nH]2)cc1 (configuration not stated)	5.6
CN(C)S(O)(O)c1ccc2c(c1)/C(=C/c1cc3c([nH]1)CCCC3)C(=O)N2	3.2
CCOc1cc(/C=C(\C#N)CON)cc(CSc2ccccc2)c1O	4.2
CC(C)(C)c1nc2c3cc[nH]c(=O)c3c3cc(F)ccc3c2[nH]1	3.3
O=C1Cc2c([nH]c3ccc(Br)cc23)-c2ccccc2N1	3.1
Nc1ncnc2c1C(I)CN2[C@@H]1O[C@H](CO)C(O)C1O (some centres not stated)	4.7
O=C1c2c(O)cc(O)cc2OC(c2ccc(O)c(O)c2)C1O (configuration not stated)	13.3
NC1=CC2N=CN=C(Nc3cccc(Br)c3)C2C=C1N (configuration not stated)	5.2
O=C1Nc2ccc(I)cc2/C1=C/c1cc(Br)c(O)c(Br)c1	10.4
Brc1c(Br)c(Br)c2n[nH]nc2c1Br	4.6
Oc1ccc(-c2nc(-c3ccc(F)cc3)c(-c3ccncc3)[nH]2)cc1	4.4
O=c1c(-c2ccc(O)cc2)coc2cc(O)cc(O)c12	3.3
COC1=CC(/C=C/C(=O)CC(=O)/C=C/c2ccc(O)c(OC)c2)=CCC1O (configuration not stated)	6.6
O=c1c2ccccc2[nH]c(=S)n1CCN1CCC(=C(c2ccc(F)cc2)c2ccc(F)cc2)CC1	6.4
CNC(=O)c1cc(Oc2ccc(NC(=O)Nc3ccc(C)c(C(F)(F)F)c3)cc2)ccn1	5.7
